Among the data in PubChem BioAssay (NCI) are GI50 and TGI values, retold here.

“And” between values parts separate entries of the source, which are not always exact repeats. Equal entries are not always repeated.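 Five compound concentrations were applied to cells in 96-well plates for 48 hours; endpoints were derived by simple linear interpolation of the resulting dose-response curve. The concentration for 50% growth inhibition is given as GI50. The concentration for full growth arrest is given as TGI.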

One experiment deals with BT-549 breast. The experiment is described as follows: DTP human tumour cell line panel, 48 h.
As for `Cc1nc2sc(C(=O)Nc3cccc(Cl)c3)c(N)c2cc1C(O)c1ccccc1` (stereo not given), the GI50 is 6.13 µM and the concentration for total growth inhibition (TGI) was 35.6 µM.

Take `COc1cc(/C=C/C(=O)/C=C/c2ccc(-n3ccnc3)cc2)ccc1O`: the GI50 is 1.87 µM and the total growth inhibition concentration (TGI) came out at 3.79 µM.

With `CC(C)(C)OC(=O)CC(S(=O)(=O)c1ccccc1)S(=O)(=O)c1ccccc1`, the GI50 was 12.4 µM and the TGI worked out at 25.2 µM.

On to `C=C(c1ccc(C(=O)NCCCn2ccnc2)cc1)c1cc2c(cc1C)C(C)(C)CCC2(C)C`, for which the GI50 was 3.14 µM and the TGI turned out to be 14.9 µM.

Consider `C#CCN(CCCOc1ccc(Cl)cc1Cl)CCCSC(=O)CCCCCN1/C(=C\C=C2/CCCC(/C=C/C3=[N+](CCCCCC(=O)[O-])c4ccccc4C3(C)C)=C2Cl)C(C)(C)c2ccccc21`, for which the GI50 is 1.05 µM and the TGI turned out to be 2.34 µM.

As for `COc1ccc(C2=NOC3=c4ccccc4=CSC3=C2c2ccccc2)cc1`, the GI50 was 24 µM and the total growth inhibition concentration (TGI) amounted to 77 µM.

In the case of `CN(Cc1cnc2nc(N)nc(N)c2n1)c1c(Cl)cc(C(=O)NC(CCC(=O)O)C(=O)O)cc1Br` (stereo not given), the 50% growth inhibitory concentration (GI50) was below 0.0122 µM and the TGI was above 100 µM.

With `CN1CCC(C(=O)Nc2n[nH]c3nnc(-c4ccccc4)cc23)CC1`, the GI50 is above 25 µM and the TGI is above 25 µM.

Turning to `O=C(/C=C/c1ccccn1)c1ccccc1`, the GI50 was 14.4 µM and the concentration for total growth inhibition (TGI) amounted to 27.6 µM.

On to `COc1ccccc1CNCCCN1C(=O)c2ccc3c4c(ccc(c24)C1=O)C(=O)N(CCCNCCCCN)C3=O`, for which the GI50 was 1.21 µM and the TGI came to 2.59 µM.

In the case of `Nc1c([N+](=O)[O-])ncn1C1OC(CO)C(O)C1O` (stereo not given), the GI50 was above 100 µM and the TGI was above 100 µM.

As for `O=[N+]([O-])/C(=C/C=C/c1ccccc1)c1ccccc1`, the GI50 is 1.91 µM and the TGI was determined as 4.1 µM.

In the case of `CC(=O)Nc1ccc2c(c1)[nH]c(=O)c1cc(Cl)ccc12`, the TGI was above 100 µM.

For the compound `O=C(Nc1ccc(-n2cc(-c3ccncc3)c(-c3ccc(Cl)c(O)c3)n2)cc1)c1ccc(Cl)c(Cl)c1`, the GI50 is 5.04 µM and the TGI is above 100 µM.

For the compound `Nc1nc2c([nH]1)c1[nH]c3ccccc3c1c1[nH]c3ccccc3c21`, the GI50 was 12.1 µM and the TGI worked out at 25.5 µM.

Regarding `COc1ccc(-c2nc3sccn3c2/C=C/C(=O)c2cc(OC)c(OC)c(OC)c2)cc1`, the GI50 was 2.56 µM and the TGI was above 28.7 µM.

On to `CCCCCCC1CCCCN1C(c1ccccc1)C(O)c1ccccc1` (stereo not given), for which the GI50 was 10.4 µM and the concentration for total growth inhibition (TGI) stood at 22.4 µM.

For the compound `OCCN1CCCN(CCCN2c3ccccc3Sc3ccc(C(F)(F)F)cc32)CC1`, the GI50 is 5.93 µM and the concentration for total growth inhibition (TGI) came out at 20.4 µM.

As to `Clc1cc(Cl)cc(Nc2ccc3c(OCCCN4CCOCC4)cccc3n2)c1`, the GI50 was 6.93 µM and the concentration for total growth inhibition (TGI) amounted to 20 µM.

`COc1ccc([C@H]2c3[nH]c4ccccc4c3C[C@H]3C(=O)N(CCCCCCC(=O)NO)CC(=O)N23)cc1`: the GI50 was 10.9 µM and the TGI is above 33.3 µM.

Take `COC(=O)c1sc(=S)c2sc(C(=O)OC)c(C(=O)OC)c2c1C(=O)OC`: the GI50 was 46.8 µM and the TGI is above 100 µM.

Turning to `Cn1cc(C2=C(c3cccc([N+](=O)[O-])c3)C(=O)NC2=O)c2ccccc21`, the GI50 was 6.38 µM and the concentration for total growth inhibition (TGI) is above 23.2 µM.

`CC[C@]1(O)C[C@@H]2CN(CCc3c([nH]c4ccccc34)[C@@](C(=O)OC)(c3cc4c(cc3OC)N(C)[C@H]3[C@@](O)(C(=O)OC)[C@H](OC(=O)CCCBr)[C@]5(CC)C=CCN6CC[C@]43[C@@H]65)C2)C1`: the 50% growth inhibitory concentration (GI50) was 0.0637 µM and the TGI is 10.1 µM.

For the compound `COc1ccc(-c2nn(-c3cccc(Cl)c3)cc2-c2c(C#N)c(=O)n3[nH]c(-c4ccc(C)o4)nc3c2C#N)cc1`, the GI50 was 4.19 µM and the TGI amounted to 43.5 µM.

Take `COc1cc(C(=O)Nc2ccc(-c3nc4ccccc4[nH]3)cc2)cc(OC)c1OC`: the GI50 is 12.7 µM and the total growth inhibition concentration (TGI) came out at 29.2 µM.

Turning to `CC(C)(C)c1cnc(CSc2cnc(NC(=O)C3CCNCC3)s2)o1`, the GI50 was 0.304 µM and 0.298 µM; the TGI is 2.83 µM and 2.45 µM.

As to `CNc1ccc(CSc2ccc(C)cc2)cc1`, the GI50 is 3.08 µM and the concentration for total growth inhibition (TGI) was determined as 23 µM.

A further experiment concerns MDA-N. The experiment is described as follows: DTP human tumour cell line panel, 48 h.
In turn, `COc1ccc(N=C2C(=O)Nc3ccc(Br)cc32)cc1` showed a TGI of 30.3 µM.

In the case of `O=[N+]([O-])/C=C/c1cn(CCCCCCCCn2cc(/C=C/[N+](=O)[O-])c3ccccc32)c2ccccc12`, the total growth inhibition concentration (TGI) was above 10 µM.
